We go through 15 compounds from ChEMBL document CHEMBL1131550, “Conformationally constrained inhibitors of caspase-1 (interleukin-1 beta converting enzyme) and of the human CED-3 homologue caspase-3 (CPP32, apopain)” (Bioorg Med Chem Lett, 1998).

The structures appear in SMILES notation.

For test [1], the target named is T1, Caspase-1 (Mus musculus, UniProt P29452).
T1 sequence (P29452 whole entry): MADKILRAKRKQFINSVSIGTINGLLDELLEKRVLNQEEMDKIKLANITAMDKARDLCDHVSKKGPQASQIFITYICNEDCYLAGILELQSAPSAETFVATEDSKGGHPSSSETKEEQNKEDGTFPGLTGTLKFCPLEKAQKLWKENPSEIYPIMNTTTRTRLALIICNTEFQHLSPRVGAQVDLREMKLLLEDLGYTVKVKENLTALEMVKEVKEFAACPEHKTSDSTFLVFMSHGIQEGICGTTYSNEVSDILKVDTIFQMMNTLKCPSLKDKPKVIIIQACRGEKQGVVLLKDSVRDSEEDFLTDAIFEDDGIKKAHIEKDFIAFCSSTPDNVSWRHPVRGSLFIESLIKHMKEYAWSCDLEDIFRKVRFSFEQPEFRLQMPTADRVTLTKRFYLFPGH
Nature of the test: Inhibitory activity against Caspase-1 using Ac-TyrValAlaAsp-amc as substrate.

For test [2], the target named is T2, Caspase-3 (Homo sapiens, UniProt P42574).
T2 sequence (P42574 whole entry): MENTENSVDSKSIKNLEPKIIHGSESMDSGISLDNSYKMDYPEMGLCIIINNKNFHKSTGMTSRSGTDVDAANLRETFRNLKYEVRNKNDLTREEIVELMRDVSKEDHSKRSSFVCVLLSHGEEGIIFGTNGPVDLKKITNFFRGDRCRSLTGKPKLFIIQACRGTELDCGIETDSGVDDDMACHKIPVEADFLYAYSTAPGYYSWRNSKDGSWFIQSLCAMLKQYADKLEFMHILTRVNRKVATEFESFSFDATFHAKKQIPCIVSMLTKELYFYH
Nature of the test: Inhibitory activity against human Caspase-3 using Ac-AspGluValAsp as substrate.

Take `O=C1C[C@H](NC(=O)[C@@H]2CS[C@H]3CC[C@H](NC(=O)OCc4ccccc4)C(=O)N32)C(O)O1` (stereo partly drawn): inhibition in test [1] was half-maximal at 4800 nM (IC50). Regarding `O=C1C[C@H](NC(=O)[C@@H]2CS[C@@H]3CCC[C@H](NC(=O)OCc4ccccc4)C(=O)N32)C(O)O1` (stereo partly drawn), the IC50 (usually the concentration needed to halve the response being measured) in test [2] is over 10000 nM; in test [1], 159 nM. `CC(C)[C@H](NC(=O)OCc1ccccc1)C(=O)N[C@@H](C)C(=O)N[C@H]1CC(=O)OC1O` (stereo partly drawn) showed an IC50 in test [1] of 64 nM.

For `O=C(CN1CC[C@H](NC(=O)OCc2ccccc2)C1=O)N[C@H]1CC(=O)OC1O` (stereo partly drawn), the IC50 in test [2] and in test [1] was over 10000 nM each time.

Compound `O=C(CN1CCCC[C@H](NC(=O)OCc2ccccc2)C1=O)N[C@H]1CC(=O)OC1O` (stereo partly drawn) gave an IC50 in test [1] of 1680 nM. With `C[C@@H](C(=O)N[C@H]1CC(=O)OC1O)N1CCCC[C@H](NC(=O)OCc2ccccc2)C1=O` (stereo partly drawn), the values for the IC50 in test [2] and in test [1] were over 10000 nM and 186 nM, respectively. As to `O=C(CN1CCC[C@H](NC(=O)OCc2ccccc2)C1=O)N[C@H]1CC(=O)OC1O` (stereo partly drawn), the IC50 is over 100000 nM in test [2] and 37000 nM in test [1]. For `O=C1C[C@H](NC(=O)[C@@H]2CCC[C@@H]3CCC[C@H](NC(=O)OCc4ccccc4)C(=O)N32)C(O)O1` (stereo partly drawn), in that order: over 10000 nM and 36 nM. `CC(C)[C@H](NC(=O)OCc1ccccc1)C(=O)N1CCCC[C@H]1C(=O)N[C@H]1CC(=O)OC1O` (stereo partly drawn): the IC50 in test [1] was determined as 95 nM. Regarding `C[C@@H](C(=O)N[C@H]1CC(=O)OC1O)N1CC[C@H](NC(=O)OCc2ccccc2)C1=O` (stereo partly drawn), the results for the IC50 in test [2] and in test [1] were over 100000 nM and 3700 nM, respectively. Take `CC(=O)N[C@@H](CC(=O)O)C(=O)N[C@H](C(=O)N[C@@H](C)C(=O)N[C@H]1CC(=O)OC1O)C(C)C` (stereo partly drawn): in test [1], the IC50 was 523 nM. Take `CC(=O)N[C@@H](CC(=O)O)C(=O)N[C@@H](CCC(=O)O)C(=O)N[C@H](C(=O)N[C@H]1CC(=O)OC1O)C(C)C` (stereo partly drawn): the IC50 in test [2] was found to be 1.2 nM; in test [1], 71 nM. Regarding `CC(=O)N[C@@H](Cc1ccc(O)cc1)C(=O)N[C@H](C(=O)N[C@@H](C)C(=O)N[C@H]1CC(=O)OC1O)C(C)C` (stereo partly drawn), the IC50 in test [1] amounted to 4.6 nM.

Regarding `CC(C)[C@H](NC(=O)OCc1ccccc1)C(=O)N1CCC[C@H]1C(=O)N[C@H]1CC(=O)OC1O` (stereo partly drawn), inhibition in test [1] was half-maximal at 87 nM (IC50). As for `CC(=O)N[C@@H](CC(=O)O)C(=O)N[C@H]1CCC[C@H]2SC[C@@H](C(=O)N[C@H]3CC(=O)OC3O)N2C1=O` (stereo partly drawn), the figures for the IC50 in test [2] and in test [1] were 18 nM and 10400 nM, respectively.
